# Data reported in US10159249B2 (BAYER CROPSCIENCE AKTIENGESELLSCHAFT, priority 2013, dated 2018).
# Where two headings read alike, the source gives them in different places. Marks after values point to notes of the source that are not given here.
# Columns and labels:
# [1] = tested on: maize transgenic T0 events expressing PfHPPDEvo41; assay: Greenhouse trial, maize T0 plants, leaf area damage; format: in vivo; details: for number of events, herbicide tolerance class 0 (41%-100% damaged leaf area) / number of events, herbicide tolerance class 1 (16%-40% damaged leaf area) / number of events, herbicide tolerance class 2 (6%-15% damaged leaf area) / number of events, herbicide tolerance class 3 (0%-5% damaged leaf area): maize PfHPPDEvo41, six days after application
# Description: (§1) Regenerated T0 events from tissue culture were transplanted into two inch square pots with synthetic soil (Fafard® Mix) and controlled-released fertilizer (Haifa Multicote™; polymer-coated controlled-release fertilizer, NPK Pro 18-6-12+Micronutrients) and cultivated in the greenhouse (GH) under supplementary high pressure sodium light for 12 days at a maximum of 30° C. during the day and a minimum of 22° C. at night. Fully recovered plants were transferred into five inch square pots filled with synthetic soil and control released fertilizer under the same environmental conditions. […] All herbicide treatments were conducted in a DeVries Tracker Sprayer system with standard application protocols, which are well known in the art. As a spray control T0 events have been sprayed with the adjunvant mixture lacking the herbicide.
# (§2) Table 2 summarizes results of transgenic maize plants expressing mutants of the Pseudomonas fluorescens HPPD protein comprising an E (Glu)->P (Pro) replacement at position 335, a G (Gly)->W (Trp) replacement at position 336, a K (Lys)->A (Ala) replacement at position 339 and an A (Ala)->Q (Gln) replacement at position 340 (named PfHPPDEvo41 and being disclosed under SEQ ID No:16 in PCT/US2013/59598 (WO2014/043435) and being disclosed in present application under SEQ ID No. 29), or a mutated sequence of the Pseudomonas (=Comamonas) testosteroni HPPD protein comprising a E (Glu)->P (Pro) replacement at position 351, a G (Gly)->W (Trp) replacement at position 352, a K (Lys)->A (Ala) replacement at position 355 and an A (Ala)->Q (Gln) replacement at position 356 (named Axmi428H-Evo41 and being disclosed under SEQ ID No 56 in PCT/US2013/59598 (WO2014/043435) and being disclosed in present application as the HPPD protein sequence under SEQ ID No 33) or a mutated sequence of the Pseudomonas agarici HPPD protein comprising a E (Glu)->P (Pro) replacement at position 335, a G (Gly)->W (Trp) replacement at position 336, a K (Lys)->A (Ala) replacement at position 339 and an A (Ala)->Q (Gln) replacement at position 340 (named Axmi309H-EVO41 and being disclosed under SEQ ID No 54 in PCT/US2013/59598 (WO2014/043435) and being disclosed in present application as the HPPD protein sequence under SEQ ID No 37).
# (§3) A rating of “1” was assigned to plants having a moderate tolerance with 16% to 40% damage of total leaf area. A rating of “2” was assigned to plants with good tolerance within the range of 6% to 15% damage of total leaf area.
# [2] = tested on: maize transgenic T0 events expressing Axmi428H-Evo41; assay: as above; format: in vivo; details: for number of events, herbicide tolerance class 0 (41%-100% damaged leaf area) / number of events, herbicide tolerance class 1 (16%-40% damaged leaf area) / number of events, herbicide tolerance class 2 (6%-15% damaged leaf area) / number of events, herbicide tolerance class 3 (0%-5% damaged leaf area): maize Axmi428H-Evo41, six days after application
# Description: as §1, §2, §3
# Axmi428H (SEQ ID No 31) = Axmi428H (SEQ ID No 31) (Comamonas testosteroni, UniProt A0A8B4SBH1); assay: HPPD activity in presence of inhibitor, HGD assay; format: biochemical, Pseudomonas (=Comamonas) testosteroni; details: 0.2 μM inhibitor
# Description: With the HGD assay HPPD activity was measured at room temperature by adding appropriate amounts of HPPD to a solution of 200 mM Tris-HCl pH 7.6, 10 mM ascorbate, 20 μM FeSO4, 650 units of catalase, 8 μg HGA dioxygenase (HGA: homogentisate) and 600 μM HPP in a total volume of 1 ml. Initial reaction rates were determined from the increase in absorbance at 318 nm due to the formation of maleylacetoacetate (ε318=11,900 M-1 cm-1).
# In cases, the symbol “>” is used this means that the value was far higher than the one indicated but could not be precisely calculated within in the range of concentration of inhibitor tested.
# In the 1st column of Table 1, the HPPD employed in the assay is named and in the 2nd column of Table 1, the corresponding SEQ ID No of present invention is disclosed.
# wild type soybean Thorne = format: in vivo; details: scored after 21 days
# [3] = tested on: Control maize plants (EPSPS selectable marker gene, no HPPD variant); assay: Greenhouse trial, maize T0 plants, leaf area damage; format: in vivo; details: for number of events, herbicide tolerance class 0 (41%-100% damaged leaf area) / number of events, herbicide tolerance class 1 (16%-40% damaged leaf area) / number of events, herbicide tolerance class 2 (6%-15% damaged leaf area) / number of events, herbicide tolerance class 3 (0%-5% damaged leaf area): maize Control
# Description: as §1, §3
# [4] = tested on: transgenic soybean T1 plants expressing PfHPPD-Evo40; format: in vivo; details: for number of events, herbicide tolerance class 0 (41%-100% damaged leaf area) / number of events, herbicide tolerance class 1 (16%-40% damaged leaf area) / number of events, herbicide tolerance class 2 (6%-15% damaged leaf area) / number of events, herbicide tolerance class 3 (0%-5% damaged leaf area): soybean PfHPPD-Evo40, scored after 21 days
# Euphorbia heterophylla = assay: Field trial, weed efficacy, post applied; format: in vivo; details: application at 5 leaf stage, assessment 14 days after application
# [5] = soybean Thorne (wt), 6.25 g AI/ha
# [6] = 25 g AI/ha, evaluation 9 days after treatment
# [7] = 50 g AI/ha, six days after application
# [8] = 100 g AI/ha, six days after application
# Sequence of Axmi428H (SEQ ID No 31) (A0A8B4SBH1 1-373): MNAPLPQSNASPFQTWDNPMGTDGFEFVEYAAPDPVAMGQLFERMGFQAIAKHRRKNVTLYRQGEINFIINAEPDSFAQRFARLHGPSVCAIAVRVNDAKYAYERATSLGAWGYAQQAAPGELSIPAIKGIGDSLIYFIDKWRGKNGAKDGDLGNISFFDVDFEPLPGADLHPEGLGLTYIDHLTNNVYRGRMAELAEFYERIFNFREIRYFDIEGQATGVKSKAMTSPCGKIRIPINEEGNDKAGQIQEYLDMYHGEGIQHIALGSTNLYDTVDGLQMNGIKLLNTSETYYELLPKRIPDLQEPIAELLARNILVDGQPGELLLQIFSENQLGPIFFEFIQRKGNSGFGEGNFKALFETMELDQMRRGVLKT
compound,measurement,setting,value
CSc1c(C(F)(F)F)ccc(C(=O)Nc2nnnn2C)c1Cl,share of tested events with high tolerance (5% or less bleached leaf area),"[1]; maize PfHPPDEvo41 (n=21), 100 g AI/ha",~70%
same,"number of events, herbicide tolerance class 0 (41%-100% damaged leaf area)",[1]; 25 g AI/ha,6
same,"number of events, herbicide tolerance class 1 (16%-40% damaged leaf area)",[1]; 25 g AI/ha,0
same,"number of events, herbicide tolerance class 2 (6%-15% damaged leaf area)",[1]; 25 g AI/ha,1
same,"number of events, herbicide tolerance class 3 (0%-5% damaged leaf area)",[1]; 25 g AI/ha,28
same,"number of events, herbicide tolerance class 0 (41%-100% damaged leaf area)",[1]; 50 g AI/ha,1
same,"number of events, herbicide tolerance class 1 (16%-40% damaged leaf area)",[1]; 50 g AI/ha,0
same,"number of events, herbicide tolerance class 2 (6%-15% damaged leaf area)",[1]; 50 g AI/ha,2
same,"number of events, herbicide tolerance class 3 (0%-5% damaged leaf area)",[1]; 50 g AI/ha,28
same,"number of events, herbicide tolerance class 0 (41%-100% damaged leaf area)",[1]; 100 g AI/ha,4
same,"number of events, herbicide tolerance class 1 (16%-40% damaged leaf area)",[1]; 100 g AI/ha,0
same,"number of events, herbicide tolerance class 2 (6%-15% damaged leaf area)",[1]; 100 g AI/ha,2
same,"number of events, herbicide tolerance class 3 (0%-5% damaged leaf area)",[1]; 100 g AI/ha,15
same,share of tested events with high tolerance (5% or less bleached leaf area),"[2]; maize Axmi428H-Evo41 (n=29), 100 g AI/ha",~70%
same,"number of events, herbicide tolerance class 0 (41%-100% damaged leaf area)",[2]; 50 g AI/ha,0
same,"number of events, herbicide tolerance class 1 (16%-40% damaged leaf area)",[2]; 50 g AI/ha,0
same,"number of events, herbicide tolerance class 2 (6%-15% damaged leaf area)",[2]; 50 g AI/ha,0
same,"number of events, herbicide tolerance class 3 (0%-5% damaged leaf area)",[2]; 50 g AI/ha,7
same,"number of events, herbicide tolerance class 0 (41%-100% damaged leaf area)",[2]; 100 g AI/ha,3
same,"number of events, herbicide tolerance class 1 (16%-40% damaged leaf area)",[2]; 100 g AI/ha,4
same,"number of events, herbicide tolerance class 2 (6%-15% damaged leaf area)",[2]; 100 g AI/ha,1
same,"number of events, herbicide tolerance class 3 (0%-5% damaged leaf area)",[2]; 100 g AI/ha,21
same,inhibition at 0.2 µM,Axmi428H (SEQ ID No 31),71%
same,"number of events, herbicide tolerance class 0 (41%-100% damaged leaf area)",wild type soybean Thorne; [5],4
same,"number of events, herbicide tolerance class 1 (16%-40% damaged leaf area)",wild type soybean Thorne; [5],0
same,"number of events, herbicide tolerance class 2 (6%-15% damaged leaf area)",wild type soybean Thorne; [5],0
same,"number of events, herbicide tolerance class 3 (0%-5% damaged leaf area)",wild type soybean Thorne; [5],0
same,"number of events, herbicide tolerance class 0 (41%-100% damaged leaf area)","wild type soybean Thorne; soybean Thorne, 25 g AI/ha",4
same,"number of events, herbicide tolerance class 1 (16%-40% damaged leaf area)","wild type soybean Thorne; soybean Thorne, 25 g AI/ha",0
same,"number of events, herbicide tolerance class 2 (6%-15% damaged leaf area)","wild type soybean Thorne; soybean Thorne, 25 g AI/ha",0
same,"number of events, herbicide tolerance class 3 (0%-5% damaged leaf area)","wild type soybean Thorne; soybean Thorne, 25 g AI/ha",0
same,bleaching symptoms,"[3]; all control events, 25 g of AI/ha",severe bleaching symptoms
same,leaf damage,"[3]; control maize T0 events without HPPD variant, 25 g AI/ha",100%
same,"number of events, herbicide tolerance class 0 (41%-100% damaged leaf area)",[3]; [6],5*
same,"number of events, herbicide tolerance class 1 (16%-40% damaged leaf area)",[3]; [6],0
same,"number of events, herbicide tolerance class 2 (6%-15% damaged leaf area)",[3]; [6],0
same,"number of events, herbicide tolerance class 3 (0%-5% damaged leaf area)",[3]; [6],0
same,"number of events, herbicide tolerance class 0 (41%-100% damaged leaf area)",[3]; [7],4
same,"number of events, herbicide tolerance class 1 (16%-40% damaged leaf area)",[3]; [7],0
same,"number of events, herbicide tolerance class 2 (6%-15% damaged leaf area)",[3]; [7],0
same,"number of events, herbicide tolerance class 3 (0%-5% damaged leaf area)",[3]; [7],0
same,"number of events, herbicide tolerance class 0 (41%-100% damaged leaf area)",[3]; [8],50
same,"number of events, herbicide tolerance class 1 (16%-40% damaged leaf area)",[3]; [8],0
same,"number of events, herbicide tolerance class 2 (6%-15% damaged leaf area)",[3]; [8],0
same,"number of events, herbicide tolerance class 3 (0%-5% damaged leaf area)",[3]; [8],0
same,herbicide tolerance,"[4]; most soybean T1 plants expressing PfHPPD-Evo40, 25 g AI/ha",high tolerance
same,"number of events, herbicide tolerance class 0 (41%-100% damaged leaf area)",[4]; 6.25 g AI/ha,0
same,"number of events, herbicide tolerance class 1 (16%-40% damaged leaf area)",[4]; 6.25 g AI/ha,0
same,"number of events, herbicide tolerance class 2 (6%-15% damaged leaf area)",[4]; 6.25 g AI/ha,0
same,"number of events, herbicide tolerance class 3 (0%-5% damaged leaf area)",[4]; 6.25 g AI/ha,4
same,"number of events, herbicide tolerance class 0 (41%-100% damaged leaf area)",[4]; 25 g AI/ha,2
same,"number of events, herbicide tolerance class 1 (16%-40% damaged leaf area)",[4]; 25 g AI/ha,7
same,"number of events, herbicide tolerance class 2 (6%-15% damaged leaf area)",[4]; 25 g AI/ha,1
same,"number of events, herbicide tolerance class 3 (0%-5% damaged leaf area)",[4]; 25 g AI/ha,6
same,"number of events, herbicide tolerance class 0 (41%-100% damaged leaf area)",[4]; 50 g AI/ha,0
same,"number of events, herbicide tolerance class 1 (16%-40% damaged leaf area)",[4]; 50 g AI/ha,4
same,"number of events, herbicide tolerance class 2 (6%-15% damaged leaf area)",[4]; 50 g AI/ha,0
same,"number of events, herbicide tolerance class 3 (0%-5% damaged leaf area)",[4]; 50 g AI/ha,0
same,"number of events, herbicide tolerance class 0 (41%-100% damaged leaf area)",[4]; 75 g AI/ha,0
same,"number of events, herbicide tolerance class 1 (16%-40% damaged leaf area)",[4]; 75 g AI/ha,4
same,"number of events, herbicide tolerance class 2 (6%-15% damaged leaf area)",[4]; 75 g AI/ha,0
same,"number of events, herbicide tolerance class 3 (0%-5% damaged leaf area)",[4]; 75 g AI/ha,0
same,Efficacy (%) Euphorbia heterophylla,Euphorbia heterophylla; (A) 25 g ai/ha,15%
same,Efficacy (%) Euphorbia heterophylla,Euphorbia heterophylla; (A) 75 g ai/ha,35%
